The values that follow come from patent US20250346943A1, “DEGRADER COMPOUNDS OF QSOX1 mRNA” (UNIVERSITY OF FLORIDA RESEARCH FOUNDATION, INCORPORATED, priority 2022, published 2025).

One data set relates to QSOX1-a mRNA. As to the kind of experiment: QSOX1-a mRNA abundance by RT-qPCR in MDA-MB-231 cells. Also on record: dose or concentration left out as unconfirmed. In kind it is cell-based, human. The conditions noted are these: at the, the highest dose. How it is done: Analysis of mRNA Abundance by RT-qPCR. Unless stated otherwise, all RT-qPCR experiments were performed to measure nascent RNA levels by using Click-it Nascent RNA Capture Kit (Cat #C10365, Thermo Fisher) per the manufacturer's protocols. Briefly, cells were treated with 0.2 mM of ethynyl uridine (EU) in growth medium for 16 h, after which the medium was replaced with fresh growth medium lacking EU. Compound or ASO treatment was performed at the same time of initial EU treatment, and compounds were replenished after replacing the medium to remove EU. Total RNA was extracted by using a Zymo Quick-RNA Miniprep Kit as per manufacturer's protocol with DNase treatment. The click reaction and pull-down of nascent RNA were performed as described in “In Vitro Chemical-Crosslinking and Isolation by Pull-down (Chem-CLIP) with Fluorescently Labeled RNA”. Reverse transcription (RT) was performed by using 300 ng total RNA and a QScript cDNA synthesis kit (QuantaBio) per manufacturer's protocols qPCR was performed in 384-well plates by using Power SYBR Green Master Mix (Life Technologies) on a QuantStudioS™ Cycler (Applied Biosystems) using the “Comparative Ct with Melt” method.
A general note: Quantitative PCR measures a nucleic acid by following its amplification.

For the next data set, the system named is MDA-MB-231 cells. As to the kind of experiment: Proliferation assay. The format is cell-based, human. The following applies: 48 h treatment. How it is done: Proliferation Assay. MDA-MB-231 cells were seeded in 96-well plates (Corning) at ˜40% confluency and treated with compound or transfected with ASO as described in Cell Culture. Compound was replenished every 16 h by replacing all the growth medium with freshly prepared medium containing same concentration of compounds. After 48 h total treatment period, proliferation was measured by using CellTiter 96 AQueous One Solution Cell Proliferation Assay (Cat #G3582, Promega) per manufacturer's protocol.

Another data set deals with MDA-MB-231 TBNC cells. Put plainly: Viability of MDA-MB-231 cells. The format is cell-based, human. Also on record: dose or concentration left out as unconfirmed. The conditions noted are these: the highest dose.
Another data set concerns SQSTM1 protein. As to the kind of experiment: SQSTM1 protein abundance by Western blotting in MDA-MB-231 cells. In kind it is cell-based, human. The conditions noted are these: F1-Amide 20 μM, F1-RIBOTAC 10 μM, 48 h. On the procedure:
(§1) Measuring Protein Abundance by Western Blotting. MDA-MB-231 cells were seeded in 6-well plates at ˜50% confluency and treated with vehicle (DMSO) or compound as described above but without EU treatment. After 16 h, the compound-containing growth medium was removed and replaced with fresh medium containing compound (re-dosing). After an additional 32 h incubation, total protein was harvested (48 h total treatment time). The cells were then washed twice with cold 1×DPBS, and total protein was harvested by using Mammalian Protein Extraction Reagent (M-PER, Thermo Scientific) per the manufacturer's protocol. Protein concentration was quantified by using BCA Protein Assay Kit (Pierce), and the proteins were separated by using 10% SDS-polyacrylamide gel (20 μg protein per lane). After gel electrophoresis in 1× Running Buffer (50 mM MOPS, 50 mM Tris-base, pH 7.5, 1 mM EDTA, and 0.1% (w/v) SDS) at 120 V for 1 h, the proteins were transferred to a PVDF membrane (0.45 μm, Cytiva) at 300 mA for 1 h in 1× Transfer Buffer (25 mM Bicine, 25 mM Tris-base, pH 7.5, 1:4 MeOH:H2O). The membrane was blocked with 5% (w/v) non-fat dry milk in TBST (1×TBS containing 0.1% (v/v) Tween-20) for 1 h at room temperature. […] Expression levels of proteins were quantified based on band intensity by using ImageJ. […]
Background: In western blotting, separated proteins are transferred to a membrane and probed.

A further data set deals with QSOX-1b. As to the kind of experiment: QSOX1-b protein abundance by Western blotting in MDA-MB-231 cells. In kind it is cell-based, human. On the procedure:
as §1

The test system of data set [1] is mutant RNA lacking U-bulge (fully paired RNA). Put plainly: In vitro binding by fluorescence polarization, Cy5-labeled mutant RNA. How it is done:
In Vitro Binding by Measuring Changes in Fluorescence Polarization. Cy5-labeled RNA was folded by heating at 95° C. for 2 min in 1× Folding Buffer and cooled on ice. Serial dilutions of F1 (200 to 0.4 μM, 1:1 dilutions) were prepared in 1× Folding Buffer with 4% (w/v) bovine serum albumin (BSA) with constant DMSO concentration (2% v/v). The compound solutions (10 μL) were added to a well of non-binding 384-well plate (Corning). An equal volume of folded RNA was adding to each well with a final concentration of 50 nM. The samples were incubated at room temperature for 30 min, and then fluorescence polarization was measured with a Molecular Devices SpectraMax M5 plate reader with an excitation wavelength of 640 nm and an emission wavelength of 680 nm.
A general note: Fluorescence polarisation rises when a labelled molecule tumbles more slowly, as on binding a larger partner.

The test system of data set [2] is mutant RNA (U-bulge mutated to U/A base pair). Put plainly: Optical melting, mutant model RNA. In kind it is binding. How it is done: Optical Melting Experiments. The thermal stability of WT and mutant model RNAs in the presence and absence of F1-Amide was measured by optical melting. The RNA ([…]) was prepared in 1× Melting Buffer (8 mM Na2HPO4, pH 7, 10 mM NaCl, and 1 mM EDTA) and heated to 95° C. followed by cooling on ice. F1-Amide was added to the final concentration of 2 mM; an equal volume of DMSO was added to the vehicle sample. The absorbance of the solution at 260 nm was measured by a Beckman Coulter DU800 spectrophotometer as a function of temperature, from 12° C. to 85° C. at a rate of 1° C./min. The background absorbance of buffer with DMSO or compound was subtracted before fitting the curve with MeltWin (v3.5)^7 to determine the melting temperature (Tm) and the Gibbs free energy (ΔG37° C.).

In the case of `CCOC(=O)C1=C(Nc2ccccc2)S/C(=C\c2ccc(OCCOCCOCCOCCNC(=O)CCC(=O)N(C)[C@H]3CC[C@@H](c4ccc(Cl)c(Cl)c4)c4ccccc43)c(O)c2)C1=O` [Compound F1-RIBOTAC], the “decrease of QSOX1-a mRNA levels” value in the data set on QSOX1-a mRNA is listed as ~35%. In the data set on MDA-MB-231 cells, the “antiproliferative activity compared to F1-Amide delivered at twice the dose” value is reported as “enhanced activity” and the “effect on proliferation of MDA-MB-231 cells” value is listed as “dose-dependently reduced proliferation”. The effect on viability entry with MDA-MB-231 TBNC cells was “no effect on viability”. In addition, the “effect on SQSTM1 protein levels” value in the data set on SQSTM1 protein was “Neither”. In the data set on QSOX-1b, the “effect on QSOX-1b levels” value is “no effect”.

For the compound `C#CCCC1(CCC(=O)N(C)[C@H]2CC[C@@H](c3ccc(Cl)c(Cl)c3)c3ccccc32)N=N1` [Compound F1], the “binding to fully paired RNA (U bulge converted to AU base pair)” value in data set [1] was “no detectable binding”. Besides, in data set [2], the “effect on Tm or ΔG37° C. of mutant RNA” value was “No changes”.
